Counter-ions that a name gives are not always drawn.

T1 sequence (Q16539 whole entry): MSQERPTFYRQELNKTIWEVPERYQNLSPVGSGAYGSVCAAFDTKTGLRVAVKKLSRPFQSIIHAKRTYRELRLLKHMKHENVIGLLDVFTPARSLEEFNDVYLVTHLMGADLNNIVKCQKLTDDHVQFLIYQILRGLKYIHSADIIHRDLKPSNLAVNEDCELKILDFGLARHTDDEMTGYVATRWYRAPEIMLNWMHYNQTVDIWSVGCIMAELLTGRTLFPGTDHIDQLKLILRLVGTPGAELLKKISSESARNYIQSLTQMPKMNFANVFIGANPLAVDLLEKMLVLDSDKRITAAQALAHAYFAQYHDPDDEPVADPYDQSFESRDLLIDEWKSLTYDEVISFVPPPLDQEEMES

Tested on in the first data set: not given
Test: not given
Conditions: not given
For the molecule `O[C@H]1CC[C@H](Nc2ncc3cc(-c4ccccc4Cl)c4nccn4c3n2)CC1` [Compound 1], the melting point (commonly the temperature of the solid-liquid transition) lay in the range of 116 to 119 °C.
Molecule `CC(C)Nc1ncc2cc(-c3ccccc3Cl)c3nccn3c2n1` (as salt: HCl) [Compound 7] had a melting point of 210 to 212.5 °C.
Consider `O=S1(=O)CCC(Nc2ncc3cc(-c4ccccc4Cl)c4nccn4c3n2)CC1` (as salt: HCl) [Compound 5], for which the melting point lay within 221.8 to 226.8 °C.
Same read-out and setting: then `CS(=O)(=O)N1CCC(Nc2ncc3cc(-c4ccccc4Cl)c4nccn4c3n2)CC1` (as salt: HCl) [Compound 3], with 188 to 194 °C; and `Clc1ccccc1-c1cc2cnc(NC3CCOCC3)nc2n2ccnc12` (as salt: HCl) [Compound 2], with 211 to 214 °C; and `O[C@H]1CC[C@H](Nc2ncc3c(n2)N2CCN=C2C(c2ccccc2Cl)=C3)CC1` [Compound 13], with 169.3 to 175.8 °C.
Turning to `Fc1ccc(CNc2ncc3cc(-c4ccccc4Cl)c4nccn4c3n2)cc1` (as salt: HCl) [Compound 8], the melting point is 178 to 180 °C.
Regarding `CC(C)(CO)Nc1ncc2cc(-c3ccccc3Cl)c3nccn3c2n1` (as salt: HCl) [Compound 6], the melting point lay in the range of 190.8 to 194.3 °C.
For the molecule `CS(=O)(=O)CCNc1ncc2cc(-c3ccccc3Cl)c3nccn3c2n1` (as salt: HCl) [Compound 9], the melting point lay in the range of 172.2 to 176 °C.

The next data set concerns the target T1, p-38 MAP kinase (Homo sapiens, UniProt Q16539).
T1 construct: made in house; host or cells: E. coli (co-expressed with SEK-1 and MEKK)
The experiment in a line: Inhibition of p-38 (MAP) kinase, in vitro assay (transfer of γ-phosphate from γ-33P-ATP to Myelin Basic Protein). The data set is classed as biochemical. The conditions noted are these: phosphorylated recombinant p38 MAP kinase; substrate MBP and γ-33P-ATP; 30° C.; read-out: IC50, the concentration causing 50% inhibition of the p-38 enzyme. Here is the method:
The p-38 MAP kinase inhibitory activity of compounds of this invention in vitro was determined by measuring the transfer of the γ-phosphate from γ-^33P-ATP by p-38 kinase to Myelin Basic Protein (MBP), using the a minor modification of the method described in Ahn, N. G.; et al. J. of Biol. Chem. Vol. 266(7), 4220-4227, (1991)
The phosphorylated form of the recombinant p38 MAP kinase was expressed with SEK-1 and MEKK in E. Coli (see, Khokhlatchev, A. et al. J. of Biol. Chem. Vol. 272(17), 11057-11062, (1997) and then purified by affinity chromatography using a Nickel column.
The phosphorylated p38 MAP kinase was diluted in kinase buffer (20 mM 3-(N-morpholino)propanesulfonic acid, pH 7.2, 25 mM β-glycerol phosphate, 5 mM ethylene glycol-bis(beta-aminoethyl ether)-N,N,N′,N′-tetraacetic acid, 1 mM sodium vanadate, 1 mM dithiothreitol, 40 mM magnesium chloride). Test compound dissolved in DMSO or only DMSO (control) was added and the samples were incubated for 10 min. at 30° C. The kinase reaction was initiated by the addition of a substrate cocktail containing MBP and γ-^33P-ATP. After incubating for an additional 20 min. at 30° C., the reaction was terminated by adding 0.75% phosphoric acid. The phosphorylated MBP was then separated from the residual γ-^33P-ATP using a phosphocellulose membrane (Millipore, Bedford, Mass.) and quantitated using a scintillation counter (Packard, Meriden, Conn.).
Regarding `O[C@H]1CC[C@H](Nc2ncc3cc(-c4ccccc4Cl)c4nccn4c3n2)CC1` [Compound 1], the IC50 came out at 10 nM.
Turning to `CC(C)(CO)Nc1ncc2cc(-c3ccccc3Cl)c3nccn3c2n1` [Compound 6], the IC50 came to 18.8 nM.
Regarding `O[C@H]1CC[C@H](Nc2ncc3c(n2)N2CCN=C2N(c2ccccc2Cl)C3)CC1` [Compound 12], the IC50 is 6620 nM.
Take `CC(C)Nc1ncc2cc(-c3ccccc3Cl)c3nccn3c2n1` [Compound 7]: the IC50 is 1.4 nM.
Take `O[C@H]1CC[C@H](Nc2ncc3c(n2)N2CCN=C2C(c2ccccc2Cl)=C3)CC1` [Compound 13]: the IC50 is 1140 nM.
Consider `CS(=O)(=O)N1CCC(Nc2ncc3cc(-c4ccccc4Cl)c4nccn4c3n2)CC1` [Compound 3], for which the IC50 worked out at 2.7 nM.

Values taken from US7285561B2, “Imidazo-substituted compounds as p38 kinase inhibitors” (Roche Palo Alto LLC, priority 2006, dated 2007).
